ChEMBL document CHEMBL3044631, “Synthesis of 2-[4,5-dimethyl-1-(phenylamino)-1H-imidazol-2-ylthio]-N-(thiazole-2-yl)acetamide derivatives and their anticancer activities” (2013)

Tests used:
Type in all cases: functional
IGROV-1 = assay: Anticancer activity against Homo sapiens (human) IGROV1 cells assessed as cell growth promotion at 10 uM after 48 hr by SRB assay
T47D [1] = assay: Anticancer activity against Homo sapiens (human) T47D cells assessed as cell growth promotion at 10 uM after 48 hr by SRB assay
MDA-MB-231 = assay: Anticancer activity against Homo sapiens (human) MDA-MB-231/ATCC cells assessed as cell growth promotion at 10 uM after 48 hr by SRB assay
MCF7 = assay: Anticancer activity against Homo sapiens (human) MCF7 cells assessed as cell growth promotion at 10 uM after 48 hr by SRB assay
UO-31 = assay: Anticancer activity against Homo sapiens (human) UO31 cells assessed as cell growth promotion at 10 uM after 48 hr by SRB assay
SN12C = assay: Anticancer activity against Homo sapiens (human) SN12C cells assessed as cell growth promotion at 10 uM after 48 hr by SRB assay
786-0 = assay: Anticancer activity against Homo sapiens (human) 786-0 cells assessed as cell growth promotion at 10 uM after 48 hr by SRB assay
SF-539 [2] = assay: Anticancer activity against Homo sapiens (human) SF539 cells after 48 hr by SRB assay; conditions: SF-539, 48 h
SF-268 = assay: Anticancer activity against Homo sapiens (human) SF268 cells after 48 hr by SRB assay; conditions: SF-268, 48 h
SF-295 = assay: Anticancer activity against Homo sapiens (human) SF295 cells after 48 hr by SRB assay; conditions: SF-295, 48 h
SW-620 = assay: Anticancer activity against Homo sapiens (human) SW620 cells after 48 hr by SRB assay; conditions: SW-620, 48 h
KM12 = assay: Anticancer activity against Homo sapiens (human) KM12 cells after 48 hr by SRB assay; conditions: KM12, 48 h
HCT-15 = assay: Anticancer activity against Homo sapiens (human) HCT15 cells assessed as cell growth promotion at 10 uM after 48 hr by SRB assay
HCT-116 = assay: Anticancer activity against Homo sapiens (human) HCT116 cells assessed as cell growth promotion at 10 uM after 48 hr by SRB assay
EKVX = assay: Anticancer activity against Homo sapiens (human) EKVX cells assessed as cell growth promotion at 10 uM after 48 hr by SRB assay
HL-60(TB) = assay: Anticancer activity against Homo sapiens (human) HL-60(TB) cells assessed as cell growth promotion at 10 uM after 48 hr by SRB assay
LOX IMVI = assay: Anticancer activity against Homo sapiens (human) LOXIMVI cells assessed as cell growth promotion at 10 uM after 48 hr by SRB assay
U-251 [3] = assay: Anticancer activity against Homo sapiens (human) U251 cells assessed as cell growth promotion at 10 uM after 48 hr by SRB assay
SNB-75 [4] = assay: Anticancer activity against Homo sapiens (human) SNB75 cells assessed as cell growth promotion at 10 uM after 48 hr by SRB assay
SNB-19 [5] = assay: Anticancer activity against Homo sapiens (human) SNB19 cells assessed as cell growth promotion at 10 uM after 48 hr by SRB assay
SF-539 [6] = assay: Anticancer activity against Homo sapiens (human) SF539 cells assessed as cell growth promotion at 10 uM after 48 hr by SRB assay
HT-29 = assay: Anticancer activity against Homo sapiens (human) HT-29 cells assessed as cell growth promotion at 10 uM after 48 hr by SRB assay
NCI-H460 = assay: Anticancer activity against Homo sapiens (human) NCI-H460 cells assessed as cell growth promotion at 10 uM after 48 hr by SRB assay
T47D [7] = assay: Anticancer activity against Homo sapiens (human) T47D cells after 48 hr by SRB assay
NCI/ADR-RES = assay: Anticancer activity against Homo sapiens (human) NCI/ADR-RES cells after 48 hr by SRB assay
OVCAR-3 = assay: Anticancer activity against Homo sapiens (human) OVCAR3 cells after 48 hr by SRB assay; conditions: OVCAR-3, 48 h
OVCAR-4 = assay: Anticancer activity against Homo sapiens (human) OVCAR4 cells after 48 hr by SRB assay; conditions: OVCAR-4, 48 h
UACC-62 = assay: Anticancer activity against Homo sapiens (human) UACC62 cells after 48 hr by SRB assay; conditions: UACC-62, 48 h
MDA-MB-435 = assay: Anticancer activity against Homo sapiens (human) MDA-MB-435 cells after 48 hr by SRB assay; conditions: MDA-MB-435, 48 h
M14 = assay: Anticancer activity against Homo sapiens (human) M14 cells after 48 hr by SRB assay; conditions: M14, 48 h
U-251 [8] = assay: Anticancer activity against Homo sapiens (human) U251 cells after 48 hr by SRB assay; conditions: U-251, 48 h
SNB-19 [9] = assay: Anticancer activity against Homo sapiens (human) SNB19 cells after 48 hr by SRB assay; conditions: SNB-19, 48 h
SNB-75 [10] = assay: Anticancer activity against Homo sapiens (human) SNB75 cells after 48 hr by SRB assay; conditions: SNB-75, 48 h
CAKI-1 = assay: Anticancer activity against Homo sapiens (human) CAKI-1 cells after 48 hr by SRB assay; conditions: CAKI-1, 48 h
RPMI-8226 = assay: Anticancer activity against Homo sapiens (human) RPMI8226 cells assessed as cell growth promotion at 10 uM after 48 hr by SRB assay

## Cc1nc(SCC(=O)Nc2nc(-c3ccc(Cl)cc3)cs2)n(Nc2ccccc2)c1C
IGROV-1
  Activity: 68.44%
T47D [1]
  Activity: 26.64%
MDA-MB-231
  Activity: 48.83%
MCF7
  Activity: 27.14%
UO-31
  Activity: 32.86%
SN12C
  Activity: 39.25%
786-0
  Activity: 54.27%
SF-539 [2]
  GI50: 1.9 µM
  LC50 (concentration killing 50% of cells): 9.64 µM
  TGI: 4.27 µM
SF-268
  GI50: 4.8 µM
  LC50: 58.8 µM
  TGI: 20.1 µM
SF-295
  GI50: 2.29 µM
  LC50: > 100 µM
  TGI: 16.5 µM
SW-620
  GI50: 5.5 µM
  LC50 (concentration killing 50% of cells): 74.6 µM
  TGI: 22.9 µM
KM12
  GI50: 2.95 µM
  LC50 (concentration killing 50% of cells): 41.4 µM
  TGI: 14 µM
HCT-15
  Activity: 57.63%
HCT-116
  Activity: 29.45%
EKVX
  Activity: 34.55%
HL-60(TB)
  Activity: 42.07%
LOX IMVI
  Activity: 26.08%
U-251 [3]
  Activity: 36.61%
SNB-75 [4]
  Activity: 39.12%
SNB-19 [5]
  Activity: 59.64%
SF-539 [6]
  Activity: 35.42%
HT-29
  Activity: 25.29%
NCI-H460
  Activity: 52.96%
T47D [7]
  GI50: 1.4 µM
  TGI: 5.24 µM
T47D [7]; read-out: LC50 (the source's name)
  CC50: 34.6 µM
NCI/ADR-RES
  GI50: 2.6 µM
  LC50: 69.9 µM
  TGI: 7.18 µM
OVCAR-3
  GI50: 3 µM
  LC50 (50% lethal concentration): 36.2 µM
  TGI: 12.1 µM
OVCAR-4
  GI50: 4.6 µM
  LC50 (concentration killing 50% of starting cells): > 100 µM
  TGI: 22.1 µM
UACC-62
  GI50: 3.09 µM
  LC50: 50.3 µM
  TGI: 16.1 µM
MDA-MB-435
  GI50: 3.25 µM
  LC50 (concentration killing 50% of cells): > 100 µM
  TGI: 21.8 µM
M14
  GI50: 3.69 µM
  LC50: 51.2 µM
  TGI: 16 µM
U-251 [8]
  GI50: 3.13 µM
  LC50 (lethal concentration, 50% net cell kill): 41.4 µM
  TGI: 13 µM
SNB-19 [9]
  GI50: 9.41 µM
  LC50: 61.7 µM
  TGI: 24.6 µM
SNB-75 [10]
  GI50: 3.48 µM
  LC50: 49.3 µM
  TGI: 16.2 µM
CAKI-1
  GI50: 3.93 µM
  LC50 (concentration killing 50% of cells): > 100 µM
  TGI: 22.6 µM

## COc1ccc(Nn2c(SCC(=O)Nc3nccs3)nc(C)c2C)cc1
IGROV-1
  Activity: 102.01%
T47D [1]
  Activity: 94.87%
MDA-MB-231
  Activity: 105.41%
MCF7
  Activity: 102.31%
UO-31
  Activity: 86.71%
SN12C
  Activity: 98.23%
786-0
  Activity: 100.29%
HCT-15
  Activity: 100.06%
HCT-116
  Activity: 106.93%
EKVX
  Activity: 108.98%
RPMI-8226
  Activity: 102.22%
HL-60(TB)
  Activity: 98.86%
LOX IMVI
  Activity: 105.4%
U-251 [3]
  Activity: 104.49%
SNB-75 [4]
  Activity: 100.22%
SNB-19 [5]
  Activity: 109.69%
SF-539 [6]
  Activity: 101.05%
HT-29
  Activity: 102.36%
NCI-H460
  Activity: 108.22%

## Cc1nc(SCC(=O)Nc2nccs2)n(Nc2ccccc2)c1C
IGROV-1
  Activity: 123.21%
T47D [1]
  Activity: 90.52%
MDA-MB-231
  Activity: 95.5%
MCF7
  Activity: 98.76%
UO-31
  Activity: 84.18%
SN12C
  Activity: 94.4%
786-0
  Activity: 103.46%
HCT-15
  Activity: 97.16%
HCT-116
  Activity: 93.75%
EKVX
  Activity: 115.74%
RPMI-8226
  Activity: 100.95%
HL-60(TB)
  Activity: 96.52%
LOX IMVI
  Activity: 99.28%
U-251 [3]
  Activity: 102.44%
SNB-75 [4]
  Activity: 85.3%
SNB-19 [5]
  Activity: 108.55%
SF-539 [6]
  Activity: 86.84%
HT-29
  Activity: 99.8%
NCI-H460
  Activity: 102.18%
